What was measured:
[1] = test system: mouse bone marrow derived dendritic cells (BMDCs); experiment: Cytokine secretion of BMDCs activated with supernatants of treated PC3 cells (ELISA); format: cell-based; conditions: for IL-12 secretion from BMDCs: BMDCs 24 h
From the text: Cancer cells recruit several pathways to evade elimination by the immune system (Kim et al., Immunology 121:1-14, 2007). Several mechanisms by which tumor cells escape immunity include upregulation of inhibitory molecules, production of immunosuppressive cytokines, and downregulation of costimulatory molecules (Rabinovich et al., Annu. Rev. Immunol. 25:267-296, 2007). Dendritic cells (DCs), the major players for the initiation of a specific anti-tumor T-cell response, are potential target to tumor-mediated immunosuppression. (Gabrilovich et al., Nat. Med. 2:1096-1103, 1996; Radmayr et al., Int. J. Cancer 63:627-632, 1995; Orsini et al., Cancer Res. 63:4497-4506, 2003.) Lactic acid secretion in highly proliferative glycolytic tumor has the ability to induce alteration in antigen phenotype and functional activity of DCs, which contributes to the suppression of local immunity (Gottfried et al. 2006). Tumor derived lactic acid inhibit the differentiation of monocytes to DCs, impair DC activation and antigen expression and suppress the proliferation, cytokine production and cytotoxic activity of T cells (Fischer et al., Blood 109:3812-3819, 2007). After observing significant and very selective reduction in lactate levels in PCa cells by MITO-DCA, the impact of the reduced lactate producing PC3 cell supernatants on DCs was investigated. Cancer cell supernatants were generated by treating PC3 cells with MITO-DCA (50 μM), Na-DCA (150 μM), and TPP-DCA (150 μM) for 24 h. First, investigated was the immune responses from the PC3 supernatants upon treatment with different DCA compounds by determining pro-inflammatory and anti-inflammatory cytokines interleukin (IL)-2, IL-4, IL-6, IL-10, IL-12, tumor necrosis factor (TNF)-α, and interferon-gamma (IFN-γ) using enzyme-linked immunosorbent assay (ELISA) (FIG. 6A) (Marrache et al., Integr. Biol. 5:215-223, 2013). […] The levels of all these three cytokines were higher for MITO-DCA treated cells compared to those, which were treated with TPP-DCA or Na-DCA. When DCs are activated appropriately, they take up tumor antigens and apoptotic bodies, migrate to the T-cell-rich area of the lymph nodes, initiate a series of actions for the selection of antigen-specific T cells, and the release of the DC cytokines such as IFN-γ and IL-12. The PC3 supernatants containing the tumor antigens were added to mouse bone marrow derived dendritic cells (BMDCs) and incubated at 37° C. (Marrache et al., 2013). […]
BMDCs were isolated from 6-8 weeks old C57BL/6 mice. […] The cells were counted, resuspended and transferred to petri dishes at the final concentration of 1.5×10^6 cells/mL. […] DC purity was tested by incubating BMDCs with LPS (100 ng/mL) and measured the surface expression of CD11c. […]

PC3 cells = experiment: MTT cytotoxicity assay; format: cell-based, Human; conditions: for IC50: MTT, 72 h incubation
Experimental: (§1) The cytotoxic behaviors of MITO-DCA, TPP-DCA, Na-DCA, and TPP-Tris-(OH)3 were evaluated using the MTT assay against PC3, DU145, LNCaP, and MSC cells. Cells (2000 cells/well for PC3, DU145, and MSC cells; 5000 cells/well for LNCaP) were seeded on a 96-well plate in 100 μL of desired medium and incubated for 24 h. The cells were treated with different DCA compounds and TPP-Tris-(OH)3 at varying concentrations and incubated for 72 h at 37° C. The cells were then treated with 20 μL of MTT (5 mg/mL in PBS) for 5 h. The medium was removed, the cells were lysed with 100 μL of DMSO, and the absorbance of the purple tormazan was recorded at 550 nm using a Bio-Tek Synergy HT microplate reader. Each well was performed in triplicate. All experiments were repeated three times. Cytotoxicity was expressed as mean percentage increase relative to the unexposed control±SD. Control values were set at 0% cytotoxicity or 100% cell viability. Cytotoxicity data (where appropriate) was fitted to a sigmoidal curve and a three parameters logistic model used to calculate the IC50, which is the concentration of chemotherapeutics causing 50% inhibition in comparison to untreated controls. The mean IC50 is the concentration of agent that reduces cell growth by 50% under the experimental conditions and is the average from at least three independent measurements that were reproducible and statistically significant. The IC50 values were reported at ±99% confidence intervals. This analysis was performed with GraphPad Prism (San Diego, U.S.A).

DU145 cells = experiment: MTT cytotoxicity assay; format: cell-based, Human; conditions: for IC50: MTT, 72 h incubation
Experimental: as §1

LNCaP cells = experiment: MTT cytotoxicity assay; format: cell-based, Human; conditions: for IC50: MTT, 72 h incubation
Experimental: as §1

[2] = supernatant of PC3 cells treated with 50 μM for 24 h

SMILES | IL-12 secretion from BMDCs ([1]; supernatant of PC3 cells treated with 150 μM for 24 h) | IC50 (PC3 cells) | Times less active than MITO-DCA (PC3 cells; PC3 cells, from IC50) | Times less active than MITO-DCA (DU145 cells; DU145 cells, from IC50) | IC50 (DU145 cells) | Times less active than MITO-DCA (LNCaP cells; LNCaP cells, from IC50) | IC50 (LNCaP cells) | IL-10 production from BMDCs [1, 2] | TNF-α secretion from BMDCs [1, 2] | IL-12 secretion from BMDCs [1, 2] | Activity relative to Na-DCA (PC3 cells; PC3 cells, from IC50) | Activity relative to Na-DCA (DU145 cells; DU145 cells, from IC50) | Activity relative to Na-DCA (LNCaP cells; LNCaP cells, from IC50)
O=C(OCCC[P+](c1ccccc1)(c1ccccc1)c1ccccc1)C(Cl)Cl.[Br-] [TPP-DCA] | lesser compared to MITO-DCA | 68 ± 1 µM | ~4 times | ~10 times | 468 ± 49 µM | ~10 times | 302 ± 37 µM |  |  |  |  |  | 
O=C(CCCCC[P+](c1ccccc1)(c1ccccc1)c1ccccc1)NC(COC(=O)C(Cl)Cl)(COC(=O)C(Cl)Cl)COC(=O)C(Cl)Cl.[Br-] [MITO-DCA] |  | 17 ± 1 µM |  |  | 42 ± 2 µM |  | 30 ± 6 µM | reducing IL-10 production | highest level | significant increased secretion of IL-12 | three orders of magnitude more active | three orders of magnitude more activity | three orders of magnitude more activity
